# Assay results: ChEMBL document CHEMBL1255573, “Synthesis and biochemical characterization of a series of 17α-perfluoroalkylated estradiols as selective ligands for estrogen receptor α” (J Med Chem, 2010)
# Experiments:
# [1] = biological target: T1, Estrogen receptor beta (Homo sapiens, UniProt Q92731); assay: Agonist activity at ERbeta-LBD in human U2OS cells transfected with Gal4-DBD assessed as increase of transactivation activity after 18 hrs by luciferase reporter gene assay; format: functional, cell-based; conditions: for pEC50: u2os
# [2] = biological target: T2, Mineralocorticoid receptor (Homo sapiens, UniProt P08235); assay: Antagonist activity at mineralocorticoid receptor-LBD in human U2OS cells transfected with Gal4-DBD assessed as inhibition of transactivation activity after 18 hrs by luciferase reporter gene assay; format: functional, cell-based; conditions: for pIC50: u2os
# T2 sequence (P08235 whole entry): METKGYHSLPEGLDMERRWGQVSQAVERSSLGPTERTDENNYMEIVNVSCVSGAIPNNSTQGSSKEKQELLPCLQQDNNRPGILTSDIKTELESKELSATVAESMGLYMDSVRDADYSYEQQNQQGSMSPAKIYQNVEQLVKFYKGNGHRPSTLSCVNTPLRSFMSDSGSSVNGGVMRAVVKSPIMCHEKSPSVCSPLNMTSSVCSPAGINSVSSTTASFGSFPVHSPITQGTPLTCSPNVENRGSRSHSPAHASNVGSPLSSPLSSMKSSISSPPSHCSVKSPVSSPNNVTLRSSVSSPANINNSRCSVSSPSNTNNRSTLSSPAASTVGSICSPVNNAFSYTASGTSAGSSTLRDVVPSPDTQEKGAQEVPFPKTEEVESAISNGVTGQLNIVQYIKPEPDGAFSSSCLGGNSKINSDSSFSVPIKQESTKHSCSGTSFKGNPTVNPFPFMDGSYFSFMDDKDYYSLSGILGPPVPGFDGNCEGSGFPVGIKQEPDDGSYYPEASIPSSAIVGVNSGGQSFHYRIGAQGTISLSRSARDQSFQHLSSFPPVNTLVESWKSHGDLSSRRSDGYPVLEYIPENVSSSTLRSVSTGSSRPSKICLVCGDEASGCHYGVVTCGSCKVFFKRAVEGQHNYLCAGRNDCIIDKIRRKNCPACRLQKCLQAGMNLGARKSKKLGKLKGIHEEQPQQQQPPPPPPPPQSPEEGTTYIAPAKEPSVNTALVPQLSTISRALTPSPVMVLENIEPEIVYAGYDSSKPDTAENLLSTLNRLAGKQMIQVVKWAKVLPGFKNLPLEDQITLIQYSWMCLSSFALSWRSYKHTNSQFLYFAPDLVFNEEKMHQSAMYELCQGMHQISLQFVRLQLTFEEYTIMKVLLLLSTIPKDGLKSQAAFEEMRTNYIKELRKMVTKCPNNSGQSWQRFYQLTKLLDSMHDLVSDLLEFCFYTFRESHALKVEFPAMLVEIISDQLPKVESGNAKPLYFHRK
# [3] = biological target: T3, Estrogen receptor (Homo sapiens, UniProt P03372); assay: Antagonist activity at ERalpha-LBD in human U2OS cells transfected with Gal4-DBD assessed as inhibition of transactivation activity after 18 hrs by luciferase reporter gene assay; format: functional, cell-based
# T3 sequence (P03372 whole entry): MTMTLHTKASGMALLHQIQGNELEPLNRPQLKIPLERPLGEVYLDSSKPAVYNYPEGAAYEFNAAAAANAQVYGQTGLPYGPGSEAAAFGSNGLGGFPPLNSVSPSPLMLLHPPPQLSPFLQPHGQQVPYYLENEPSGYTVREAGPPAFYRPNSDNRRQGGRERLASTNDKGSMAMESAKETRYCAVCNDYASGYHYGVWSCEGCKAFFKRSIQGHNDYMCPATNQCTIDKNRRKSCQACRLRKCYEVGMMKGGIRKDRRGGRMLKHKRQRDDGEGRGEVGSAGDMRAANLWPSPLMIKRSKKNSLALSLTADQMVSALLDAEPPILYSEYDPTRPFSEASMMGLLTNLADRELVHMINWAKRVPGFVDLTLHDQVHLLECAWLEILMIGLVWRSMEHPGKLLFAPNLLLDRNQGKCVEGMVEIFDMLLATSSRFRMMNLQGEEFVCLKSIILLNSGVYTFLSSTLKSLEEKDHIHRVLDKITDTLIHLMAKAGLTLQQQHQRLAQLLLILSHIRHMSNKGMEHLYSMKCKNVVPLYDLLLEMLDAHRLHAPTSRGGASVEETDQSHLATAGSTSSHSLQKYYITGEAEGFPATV
# [4] = biological target: T1, Estrogen receptor beta; assay: Antagonist activity at ERbeta-LBD in human U2OS cells transfected with Gal4-DBD assessed as inhibition of transactivation activity after 18 hrs by luciferase reporter gene assay; format: functional, cell-based
# [5] = biological target: T2, Mineralocorticoid receptor; assay: Agonist activity at mineralocorticoid receptor-LBD in human U2OS cells transfected with Gal4-DBD assessed as increase of transactivation activity after 18 hrs by luciferase reporter gene assay; format: functional, cell-based
# [6] = biological target: T3, Estrogen receptor; assay: Agonist activity at ERalpha-LBD in human U2OS cells transfected with Gal4-DBD assessed as increase of transactivation activity after 18 hrs by luciferase reporter gene assay; format: functional, cell-based; conditions: for pEC50: u2os
# [7] = biological target: T1, Estrogen receptor beta; assay: Agonist activity at ERbeta-LBD in human U2OS cells transfected with Gal4-DBD assessed as increase of transactivation activity after 18 hrs by luciferase reporter gene assay relative to 17-beta-estradiol; format: functional, cell-based
# [8] = biological target: T4, Glucocorticoid receptor (Homo sapiens, UniProt P04150)
# T4 sequence (P04150 whole entry): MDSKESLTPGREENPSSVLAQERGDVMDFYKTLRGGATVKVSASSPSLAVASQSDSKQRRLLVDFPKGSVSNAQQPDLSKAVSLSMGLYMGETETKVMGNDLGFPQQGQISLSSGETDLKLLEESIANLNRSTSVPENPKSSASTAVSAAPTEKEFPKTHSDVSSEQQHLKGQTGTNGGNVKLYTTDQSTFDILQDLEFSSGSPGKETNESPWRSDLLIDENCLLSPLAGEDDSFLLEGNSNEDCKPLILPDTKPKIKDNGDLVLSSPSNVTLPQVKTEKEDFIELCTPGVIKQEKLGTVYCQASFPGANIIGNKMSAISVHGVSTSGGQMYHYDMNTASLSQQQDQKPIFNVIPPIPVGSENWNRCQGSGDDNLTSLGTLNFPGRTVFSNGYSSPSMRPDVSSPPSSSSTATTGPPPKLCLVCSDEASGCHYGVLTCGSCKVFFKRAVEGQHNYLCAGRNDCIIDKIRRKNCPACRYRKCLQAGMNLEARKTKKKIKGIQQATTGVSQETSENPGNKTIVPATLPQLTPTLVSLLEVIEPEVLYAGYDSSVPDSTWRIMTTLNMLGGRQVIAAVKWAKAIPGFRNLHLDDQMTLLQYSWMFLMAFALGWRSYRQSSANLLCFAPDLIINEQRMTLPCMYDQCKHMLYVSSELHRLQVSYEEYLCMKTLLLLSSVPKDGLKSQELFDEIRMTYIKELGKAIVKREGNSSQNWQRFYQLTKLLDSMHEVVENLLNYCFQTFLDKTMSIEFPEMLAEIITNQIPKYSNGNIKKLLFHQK
# Description: Antagonist activity at glucocorticoid receptor-LBD in human U2OS cells transfected with Gal4-DBD assessed as inhibition of transactivation activity after 18 hrs by luciferase reporter gene assay
# [9] = biological target: T4, Glucocorticoid receptor; remark: listed apart in the source
# Description: Agonist activity at glucocorticoid receptor-LBD in human U2OS cells transfected with Gal4-DBD assessed as increase of transactivation activity after 18 hrs by luciferase reporter gene assay
# T1 sequence (Q92731 whole entry, the tested form may be a part): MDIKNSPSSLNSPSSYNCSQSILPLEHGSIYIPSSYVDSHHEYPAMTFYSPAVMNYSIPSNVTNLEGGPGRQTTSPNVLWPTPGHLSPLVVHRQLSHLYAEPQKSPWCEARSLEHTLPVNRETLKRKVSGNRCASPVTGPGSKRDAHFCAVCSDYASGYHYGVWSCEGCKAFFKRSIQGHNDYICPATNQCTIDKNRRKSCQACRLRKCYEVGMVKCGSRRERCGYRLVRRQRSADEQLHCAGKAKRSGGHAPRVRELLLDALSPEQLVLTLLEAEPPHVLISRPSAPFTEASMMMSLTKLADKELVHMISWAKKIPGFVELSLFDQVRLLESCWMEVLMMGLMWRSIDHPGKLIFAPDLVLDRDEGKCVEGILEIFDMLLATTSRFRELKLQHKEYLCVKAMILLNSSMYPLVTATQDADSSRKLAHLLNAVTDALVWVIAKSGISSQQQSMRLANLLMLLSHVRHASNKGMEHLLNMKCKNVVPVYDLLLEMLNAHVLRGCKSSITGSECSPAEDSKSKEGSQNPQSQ
EC50 [1],pIC50 [2],IC50 [3],IC50 [4],EC50 [5],EC50 [6],Activity [7],IC50 [8],EC50 [9],pEC50 [1],pEC50 [6],IC50 [2],SMILES
2.4 µM,> 4.901,< 15.8 µM,< 15.8 µM,< 15.8 µM,0.485 µM,0.02%,< 5.5 µM,< 15.8 µM,,,,C[C@]12CC[C@@H]3c4ccc(O)cc4CC[C@H]3[C@@H]1CC[C@@]2(O)C/C=C/CC(F)(F)C(F)(F)C(F)(F)F
,> 4.8,< 15.8 µM,< 15.8 µM,< 15.8 µM,,,< 15.8 µM,0.00673 µM,> 4.902,> 4.8,,COc1ccc2c(c1)CC[C@@H]1[C@@H]2CC[C@@]2(C)[C@H]1CC[C@@]2(O)C/C=C/CC(F)(F)C(F)(F)C(F)(F)C(F)(F)C(F)(F)C(F)(F)F
< 2.75 µM,,< 15.8 µM,< 11.9 µM,< 15.8 µM,2.08 µM,,< 15.8 µM,< 15.8 µM,,,< 5.36 µM,C[C@]12CC[C@@H]3c4ccc(O)cc4CC[C@H]3[C@@H]1CC[C@@]2(O)/C=C/CC(F)(F)C(F)(F)C(F)(F)C(F)(F)C(F)(F)C(F)(F)F
,,< 15.8 µM,< 4.05 µM,< 15.8 µM,0.403 µM,,< 13.5 µM,< 15.8 µM,> 4.8,,5.14 µM,C[C@]12CC[C@@H]3c4ccc(O)cc4CC[C@H]3[C@@H]1CC[C@@]2(O)C/C=C/CC(F)(C(F)(F)F)C(F)(F)F
0.129 µM,,< 15.8 µM,< 12.4 µM,< 15.8 µM,0.0355 µM,0.35%,3.13 µM,< 15.8 µM,,,3.81 µM,C[C@]12CC[C@@H]3c4ccc(O)cc4CC[C@H]3[C@@H]1CC[C@@]2(O)/C=C/CC(F)(F)C(F)(F)C(F)(F)F
5.19 µM,> 4.841,< 15.8 µM,< 15.8 µM,< 15.8 µM,4.03 µM,0.01%,< 9.25 µM,< 15.8 µM,,,,COc1ccc2c(c1)CC[C@@H]1[C@@H]2CC[C@@]2(C)[C@H]1CC[C@@]2(O)/C=C/CC(F)(F)C(F)(F)C(F)(F)F
0.052 µM,,< 15.8 µM,< 15.8 µM,< 15.8 µM,1.03 µM,0.88%,< 15.8 µM,< 15.8 µM,,,< 4.82 µM,C[C@]12CC[C@@H]3c4ccc(O)cc4CC[C@H]3[C@@H]1CC[C@@]2(O)C/C=C/CC(F)(F)C(F)(F)C(F)(F)C(F)(F)C(F)(F)C(F)(F)F
,,< 15.8 µM,< 15.7 µM,< 15.8 µM,9.95 µM,,13.6 µM,< 15.8 µM,> 4.713,,< 6.65 µM,C[C@]12CC[C@@H]3c4ccc(O)cc4CC[C@H]3[C@@H]1CC[C@@]2(O)/C=C/CC(F)(C(F)(F)F)C(F)(F)F
,> 4.8,< 15.8 µM,< 15.8 µM,< 15.8 µM,1.66 µM,,< 15.8 µM,< 15.8 µM,> 4.817,,,COc1ccc2c(c1)CC[C@@H]1[C@@H]2CC[C@@]2(C)[C@H]1CC[C@@]2(O)C/C=C/CC(F)(F)C(F)(F)C(F)(F)F
< 8.34 µM,> 4.8,< 15.8 µM,< 15.8 µM,< 15.8 µM,,,< 15.8 µM,< 15.8 µM,,> 4.8,,COc1ccc2c(c1)CC[C@@H]1[C@@H]2CC[C@@]2(C)[C@H]1CC[C@@]2(O)/C=C/CC(F)(F)C(F)(F)C(F)(F)C(F)(F)C(F)(F)C(F)(F)F
